Here are results for 11 molecules from patent publication US5372813A (priority 1992, dated 1994).

Data set [1] has as its target T1, 5-HT (serotonin) reuptake complex (Rattus norvegicus, UniProt P31652).
T1 construct: from tissue; host or cells: rat cortical brain homogenates
Kind of data set: competition with 3H-paroxetine for the 5-HT reuptake complex in rat cortical brain homogenates (Ki). Format: binding. The note with it: Ki of analogue relative to Ki of 6-NQP. How it is done: A potency ratio was also determined by comparing the Ki of the analogue to the Ki experimentally determined for the unsubstituted 6-Nitroquipazine.

Data set [2] deals with T1, 5-HT (serotonin) reuptake complex. Described as above. In kind it is binding.
Data set [3] has as its target serotonin uptake sites (Rattus norvegicus, UniProt P31652). Put plainly: Scatchard saturation binding of 5-125I-6-NQP to isolated rat brain membranes, control and PCA-treated. To be noted: PCA-treated versus control rats, in vitro, in words.
In data set [4] the test system is serotonin uptake system. Kind of data set: competition of known ligands against 5-125I-6-NQP in membrane preparation. The note with it: versus e.g. sertraline and fluoxetine, in words. In kind it is binding, rat. How it is done: In the second set of experiments, competition experiments were performed with known agonist and antagonists to the serotonin uptake system, post synaptic serotonin receptors, and a receptors of other brain receptor systems. These compounds were incubated against 5-^125 I-6-NQP to determine the concentration needed to displace 5-^125 I-6-NQP from the membrane preparations. The strongest competitors were those specific for the serotonin uptake system, (FIG. 2).

The test system of data set [5] is 5-HT reuptake complex. Put plainly: ex vivo autoradiography of rat brain. To be noted: 25 μCi, 2, 6 and 12 h post injection, in words. How it is done: Ex vivo autoradiography was performed on rats injected with 25 μCi 5-^125 I-6-NQP and killed at 2, 6 and 12 h post injection.
The nature of data set [6]: in vivo brain uptake, clearance and regional distribution of 5-125I-6-NQP after i.v. injection. To be noted: rat. How it is done: Whole body distribution studies were performed in rats in accordance with the method of Carl Mathis, et al described in Nuclear Medicine and Biology 19: 571-588 (1992).
The ratios of regional activity concentrations to cerebellar concentrations are plotted in the left panel of FIG. 4. […] Also plotted in the right panel of FIG. 4 is the time course of specific binding (total regional radioactivity cerebellar radioactivity) in a representative tissue.

A short description of data set [7]: metabolite determination in brain and thyroid radioactivity after injection of 5-125I-6-NQP. In kind it is in vivo, rat. How it is done: The brains of rats which had been injected with 25 μCi of 5-^125 I-6-NQP 6 h earlier were removed, homogenized, and repeatedly extracted with ethyl acetate and added cold 5-I-6-NQP carrier. The ethyl acetate fractions were pooled and evaporated, and the concentrate subject to TLC and HPLC (with fraction collection) analyses to determine metabolites in the brain.

Data set [8] has as its system 5-HT reuptake complex. Put plainly: in vivo blocking of 5-125I-6-NQP brain binding by co-injected drugs. The note with it: co-injection, LSD 0.5 mg/kg; GBR-12909 and DMI 2 mg/kg, in words. Set-up: species or system rat.
Excerpt: A critical test of the in vivo behavior of the radioligand is the ability to block its specific binding.
In data set [9] the test system is 5-HT reuptake site. Kind of data set: neurotoxin (PCA) pretreatment study, 5-125I-6-NQP binding. In kind it is in vivo, rat. The note with it: PCA 10 mg/kg for 2 days. From the text:
The in vivo results were consistent with the reduction in Bmax measured by in vitro binding methods and indicated up to a 90% reduction in 5-HT reuptake site densities in lesioned rats.

Data set [10] relates to depression. To be noted: patients, in words; cited from earlier work.
[11] abbreviates: rat cortical brain homogenates, 3H-paroxetine displacement, read-out: In vitro Inhibition Constants (Ki) for the 5-HT Reuptake Site.

Read-outs that look alike come from different tables or passages of the source.

serotonin uptake sites, sequence (P31652 whole entry): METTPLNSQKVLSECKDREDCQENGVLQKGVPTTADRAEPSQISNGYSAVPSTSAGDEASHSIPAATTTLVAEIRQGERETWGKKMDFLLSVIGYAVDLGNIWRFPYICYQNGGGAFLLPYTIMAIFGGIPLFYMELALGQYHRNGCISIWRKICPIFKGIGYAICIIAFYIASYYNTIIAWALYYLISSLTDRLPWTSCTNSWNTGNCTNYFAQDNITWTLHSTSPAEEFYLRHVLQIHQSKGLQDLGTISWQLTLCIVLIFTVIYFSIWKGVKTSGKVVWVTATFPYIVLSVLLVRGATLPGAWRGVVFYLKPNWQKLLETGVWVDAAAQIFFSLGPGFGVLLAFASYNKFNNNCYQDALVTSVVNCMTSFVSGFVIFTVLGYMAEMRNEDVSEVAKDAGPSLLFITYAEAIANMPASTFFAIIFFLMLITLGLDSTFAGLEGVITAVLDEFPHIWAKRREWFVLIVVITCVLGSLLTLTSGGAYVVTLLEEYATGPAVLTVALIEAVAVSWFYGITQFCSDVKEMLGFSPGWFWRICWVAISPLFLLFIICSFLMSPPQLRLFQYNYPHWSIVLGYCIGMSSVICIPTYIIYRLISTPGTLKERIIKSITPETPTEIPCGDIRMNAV
T1 sequence (P31652 whole entry, one chain of several): as the sequence (P31652 whole entry) above

With `O=[N+]([O-])c1ccc2nc(N3CCNCC3)c(Br)cc2c1` [3-Br-6-NQP, 3-Bromo-6-nitro-2-piperazinylquinoline], in [1], the “Potency Ratio” value came to 42. The molecule also yielded an inhibition constant (Ki) in data set [2] of 9.6 ± 2.6 nM.
As to `O=[N+]([O-])c1ccc2nc(N3CCNCC3)ccc2c1Br` [5-Br-6-NQP, 5-Bromo-6-nitro-2-piperazinylquinoline], the “Potency Ratio” value in data set [1] is given as 0.57. In data set [2], this molecule registered a Ki of 0.13 ± 0.02 nM.
As to `O=[N+]([O-])c1ccc2nc(N3CCNCC3)ccc2c1[125I]` [5-^125 I-6-NQP, [^125 I]5-Iodo-6-nitro-2-piperazinylquinoline], the “affinity (Kd) after PCA treatment” value in [3] is recorded as “little change in the affinity (Kd)”. Moreover, in [3] (listed as INQUIP), the “affinity (Kd) after PCA treatment” value was “without change in affinity” and the “total binding (Bmax) after PCA treatment” value is given as “enormous reduction in binding after PCA treatment”. In addition, the “relative potency for the uptake site versus other serotonin uptake ligands” value in [4] is listed as “greater than that observed for other serotonin uptake ligands”. For the same molecule, in data set [5], the “binding distribution in rat brain by ex vivo autoradiography” value was “consistent with the known neuroanatomical distribution of the 5-HT reuptake complex”. Also, the whole brain accumulation in data set [6] (25 μCi (11 pmoles) i.v., 5 min post injection) is given as 1.9 % of the injected dose. Besides, in data set [6] (i.v., 12 h period post injection, in words), the “ratios of regional to cerebellar activity concentrations” value is “increase in a nearly linear manner over the 12 h period post injection”. In [6] (i.v., in words), the brain penetration entry was “good brain penetration” and the “clearance of nonspecific binding (cerebellum) versus regions of high 5-HT innervation” value is recorded as “more rapid than that of radioactivity clearance from brain regions containing high concentrations of 5-HT innervation”. The “loss of activity from the brain” value in data set [6] (i.v., over 12 h, in words) is given as “slow steady loss of activity from the brain over 12 h”. Moreover, the remaining at 6 h in data set [7] (25 uCi, rat brain, 25 μCi, 6 h, read-out: unmetabolized radioligand in brain (organic phase radioactivity)) is more than 98%. Further, the “metabolic deiodination in vivo” value in data set [7] (rat, 6 h, in words) is on record as “metabolic deiodination of 5-^125 I-6-NQP occurs in vivo in rats”. In data set [7] (rat, 6 h post injection), the “radioactivity in the thyroid gland” value is 11 % of the injected dose.
As to `CCN(CC)C(=O)[C@@H]1C=C2c3cccc4[nH]cc(c34)C[C@H]2N(C)C1` [LSD], in data set [8], the “radioactivity concentrations in brain regions” value is “little effect on radioactivity concentrations in these regions”.
Consider `O=[N+]([O-])c1cc(Br)c2nc(N3CCNCC3)ccc2c1` [8-Br-6-NQP, 8-Bromo-6-nitro-2-piperazinylquinoline], for which the “Potency Ratio” value in [1] came out at 78. In data set [2], this molecule gave an inhibitory constant (Ki) of 18 ± 3 nM.
For `O=[N+]([O-])c1cc2ccc(N3CCNCC3)nc2cc1Br` [7-Br-6-NQP, 7-Bromo-6-nitro-2-piperazinylquinoline], the “Potency Ratio” value in [1] came out at 18. In [2], this molecule registered an inhibition constant (Ki) of 4.1 ± 1.5 nM.
Take `Fc1ccc(C(OCCN2CCN(CCCc3ccccc3)CC2)c2ccc(F)cc2)cc1` [GBR-12909]: the “radioactivity concentrations in brain regions” value in data set [8] is on record as “little effect on radioactivity concentrations in these regions”.
As for `CC(N)Cc1ccc(Cl)cc1` (stereo not shown) [PCA, p-chloroamphetamine], in data set [9] (i.v. 5-125I-6-NQP two weeks later, in words), the “specifically bound radioactivity after PCA pretreatment” value was “regionally selective reduction of specifically bound radioactivity”. Also, the “reduction in 5-HT reuptake site densities in lesioned rats” value in data set [9] (two weeks before) is not above 90%.
Regarding `O=[N+]([O-])c1ccc2nc(N3CCNCC3)cc(Br)c2c1` [4-Br-6-NQP], the “Potency Ratio” value in data set [1] is 870. Besides, in data set [2] (setting [11]), the inhibition constant (Ki) turned out to be 200 ± 80 nM.
On to `O=[N+]([O-])c1ccc2nc(N3CCNCC3)ccc2c1` [6-NQP, 6-nitro-2-N-piperazinylquinoline, reference compound], for which the “Potency Ratio” value in data set [1] is listed as 1. For the same molecule, the inhibition constant Ki in data set [2] (setting [11]) came to 0.23 ± 0.06 nM.
Turning to `CNCCC(Oc1ccc(C(F)(F)F)cc1)c1ccccc1` (racemic) [fluoxetine, (±)-N--Methyl-3-Phenyl-3-[(ααα-trifluoro-p-tolyl)oxy]propylamine], in data set [10], the “anti-depressant efficacy compared with certain tricyclic amine drugs” value was “equal anti-depressant efficacy”; the “total side effects and dropouts compared with certain tricyclic amine drugs” value was “fewer total side effects and dropouts”.
